Laboratory results reported in patent US20080280879A1, “SUBSTITUTED HETEROCYCLIC DERIVATIVES AND THEIR PHARMACEUTICAL USE AND COMPOSITIONS” (priority 2007, published 2008).
Converted amounts (≈) assume the structure as drawn.

Key:
Assay type in all cases: cell-based, Staphylococcus aureus
Staph aureus 2811 = assay: MIC, microtiter broth dilution (CLSI M7-A7), Assay 1, Table 12 column D, no serum; conditions: for MIC: Staphylococcus aureus, 2811, Staph aureus 2811, Assay 1, no serum; for MIC, column D: Staph aureus 2811, Assay 1, no serum
How it was run: (§1)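 CLSI microdilution (M7-A7; M100-S16 interpretation); DMSO stocks at 10 mg/ml; endpoint = no macroscopically visible growth; MIC μg/ml, geometric mean if run more than once.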

Staph aureus 2812 = assay: MIC, microtiter broth dilution (CLSI M7-A7), Assay 1, Table 12 column E, no serum; conditions: for MIC: Staphylococcus aureus, 2812, Staph aureus 2812, Assay 1, no serum; for MIC, column E: Staph aureus 2812, Assay 1, no serum
How it was run: as §1

Staph aureus 1095 MRSA = assay: MIC, microtiter broth dilution (CLSI M7-A7), Assay 1, Table 12 column A, no serum; conditions: Assay 1, no serum; for MIC: Staphylococcus aureus, MRSA
How it was run: as §1

Staph aureus 1146 [1] = assay: MIC in Mueller-Hinton Broth with 50% pooled inactivated human serum, Assay 1, Table 12; conditions: for MIC: Staphylococcus aureus, 1146, Staph aureus 1146, Assay 1, 50% human serum, read-out: MIC, column C; for MIC, column C: Staph aureus 1146, Assay 1, 50% human serum
How it was run: as §1

Staph aureus 1146 [2] = assay: MIC, microtiter broth dilution (CLSI M7-A7), Assay 1, Table 12 column B, no serum; conditions: for MIC: Staphylococcus aureus, 1146, Staph aureus 1146, Assay 1, no serum; for MIC, column B: Staph aureus 1146, Assay 1, no serum
How it was run: as §1

Row | Compound | MIC (Staph aureus 2811) [µg/mL] | MIC (Staph aureus 2812) [µg/mL] | MIC (Staph aureus 1095 MRSA) [µg/mL] | MIC (Staph aureus 1146 [1]) [µg/mL] | MIC (Staph aureus 1146 [2]) [µg/mL] | MIC, column D (Staph aureus 2811) | MIC, column E (Staph aureus 2812) | MIC, column A (Staph aureus 1095 MRSA) [µg/mL] | MIC, column C (Staph aureus 1146 [1]) [µg/mL] | MIC, column B (Staph aureus 1146 [2])
1 | COc1ccc2nccc([C@H](O)CC[C@@H]3CCN(C4CC(C5CCCC5)C4)C[C@@H]3C(=O)O)c2c1 (stereo partly drawn) [Example 46, (3R,4R)-1-(3-cyclopentylcyclobutyl)-4-[(3R)-3-hydroxy-3-(6-methoxyquinolin-4-yl)propyl]piperidine-3-carboxylic acid] | 1 (≈ 2.14 µM) | 2 (≈ 4.29 µM) | 1 (≈ 2.14 µM) | 8 (≈ 17.1 µM) | 1 (≈ 2.14 µM) |  |  |  |  | 
2 | COc1ccc2nccc([C@@H](O)CC[C@@H]3CCN(C4CC(C5CCCC5)C4)C[C@@H]3C(=O)O)c2c1 (stereo partly drawn) [Example 47, (3R,4R)-1-(3-cyclopentylcyclobutyl)-4-[(3S)-3-hydroxy-3-(6-methoxyquinolin-4-yl)propyl]piperidine-3-carboxylic acid] | ≤ 0.0625 | 0.125 (≈ 0.268 µM) | 0.125 (≈ 0.268 µM) | 0.5 (≈ 1.07 µM) | ≤ 0.0625 |  |  |  |  | 
3 | COc1ccc2nccc([C@@H](O)CC[C@@H]3CCN(C4CC(C5CCCC5)C4)C[C@@H]3C(=O)O)c2c1 (stereo partly drawn) [Example 48, (3R,4R)-1-(3-cyclopentylcyclobutyl)-4-[(3S)-3-hydroxy-3-(6-methoxyquinolin-4-yl)propyl]piperidine-3-carboxylic acid] |  |  |  |  |  | 0.125 µg/mL (≈ 0.268 µM) | 0.125 µg/mL (≈ 0.268 µM) | 0.25 (≈ 0.536 µM) | 1 (≈ 2.14 µM) | 0.125 µg/mL (≈ 0.268 µM)
4 | COc1ccc2nccc(C(O)CC[C@@H]3CCN(C4CC(CC5CCCC5)C4)C[C@@H]3C(=O)O)c2c1 (stereo partly drawn) [Example 49] |  |  |  |  |  | <=.0625 μg/ml | <=.0625 μg/ml | 0.125 (≈ 0.26 µM) | 0.25 (≈ 0.52 µM) | <=.0625 μg/ml
5 | COc1ccc2nccc(C(O)CC[C@@H]3CCN(C4CC(C5CCOCC5)C4)C[C@@H]3C(=O)O)c2c1 (stereo partly drawn) [Example 50, (3R,4R)-4-[3-hydroxy-3-(6-methoxyquinolin-4-yl)propyl]-1-[3-(tetrahydro-2H-pyran-4-yl)cyclobutyl] piperidine-3-carboxylic acid] | 64 (≈ 133 µM) | 64 (≈ 133 µM) | 32 (≈ 66.3 µM) | 32 (≈ 66.3 µM) | 32 (≈ 66.3 µM) |  |  |  |  | 
6 | COc1ccc2nccc(C(O)CC[C@@H]3CCN(C4CC(CC5CCOC5)C4)C[C@@H]3C(=O)O)c2c1 (stereo partly drawn) [Example 51, (3R,4R)-4-[3-hydroxy-3-(6-methoxyquinolin-4-yl)propyl]-1-[3-(tetrahydrofuran-3-ylmethyl)cyclobutyl]piperidine-3-carboxylic acid] | 16 (≈ 33.2 µM) | 8 (≈ 16.6 µM) | 32 (≈ 66.3 µM) | 16 (≈ 33.2 µM) | 16 (≈ 33.2 µM) |  |  |  |  | 
7 | COc1ccc2nccc(C(O)CC[C@@H]3CCN(C4CC(CC5CCCO5)C4)C[C@@H]3C(=O)O)c2c1 (stereo partly drawn) [Example 52, (3R,4R)-4-[3-hydroxy-3-(6-methoxyquinolin-4-yl)propyl]-1-[3-(tetrahydrofuran-2-ylmethyl)cyclobutyl]piperidine-3-carboxylic acid] | 8 (≈ 16.6 µM) | 32 (≈ 66.3 µM) | > 64 | 16 (≈ 33.2 µM) | 16 (≈ 33.2 µM) |  |  |  |  | 
8 | COc1ccc2nccc(C(O)CC[C@@H]3CCN(C4CC5CCCCCC54)C[C@@H]3C(=O)O)c2c1 (stereo partly drawn) [Example 53, (3R,4R)-1-[(1,7)-bicyclo[5.2.0]non-8-yl]-4-[3-hydroxy-3-(6-methoxyquinolin-4-yl)propyl] piperidine-3-carboxylic acid] |  |  |  |  |  | 32 µg/mL (≈ 68.6 µM) | 16 µg/mL (≈ 34.3 µM) | 16 (≈ 34.3 µM) | >64 | >64 µg/mL
9 | COc1ccc2nccc(C(O)CC[C@@H]3CCN(C4CC5CCCCC54)C[C@@H]3C(=O)O)c2c1 (stereo partly drawn) [Example 54, (3R,4R)-1-[(1,6)-bicyclo[4.2.0]oct-7-yl]-4-[3-hydroxy-3-(6-methoxyquinolin-4-yl)propyl] piperidine-3-carboxylic acid] |  |  |  |  |  | >64 µg/mL | >64 µg/mL | >64 | >64 | 64 µg/mL (≈ 141 µM)
10 | COc1ccc2nccc(C(O)CC[C@@H]3CCN(C4CC5(CCCC5)C4)C[C@@H]3C(=O)O)c2c1 (stereo partly drawn) [Example 55, (3R,4R)-4-[3-hydroxy-3-(6-methoxyquinolin-4-yl)propyl]-1-spiro[3.4]oct-2-ylpiperidine-3-carboxylic acid] | 2 (≈ 4.42 µM) | 2 (≈ 4.42 µM) | 4 (≈ 8.84 µM) | 32 (≈ 70.7 µM) | 1 (≈ 2.21 µM) |  |  |  |  | 
11 | COc1ccc2nccc(C(O)CC[C@@H]3CCN(C4CC5(CCCCC5)C4)C[C@@H]3C(=O)O)c2c1 (stereo partly drawn) [Example 56, (3R,4R)-4-[3-hydroxy-3-(6-methoxyquinolin-4-yl)propyl]-1-spiro[3.5]non-2-ylpiperidine-3-carboxylic acid] | 0.5 (≈ 1.07 µM) | 0.5 (≈ 1.07 µM) | 2 (≈ 4.29 µM) | 2 (≈ 4.29 µM) | 0.5 (≈ 1.07 µM) |  |  |  |  | 
12 | COc1ccc2nccc([C@@H](O)CC[C@@H]3CCN(C4CC(c5cccc(F)c5C)C4)C[C@@H]3C(=O)O)c2c1 (stereo partly drawn) [Example 57, (3R,4R)-1-[3-(3-fluoro-2-methylphenyl)cyclobutyl]-4-[(3S)-3-hydroxy-3-(6-methoxyquinolin-4-yl)propyl]piperidine-3-carboxylic acid] | 0.25 (≈ 0.493 µM) | 0.25 (≈ 0.493 µM) | 0.5 (≈ 0.987 µM) | 8 (≈ 15.8 µM) | 0.25 (≈ 0.493 µM) |  |  |  |  | 
13 | COc1ccc2nccc([C@@H](O)CC[C@@H]3CCN(C4CC(c5cc(C)ccc5F)C4)C[C@@H]3C(=O)O)c2c1 (stereo partly drawn) [Example 61, (3R,4R)-1-[3-(2-fluoro-5-methylphenyl)cyclobutyl]-4-[(3S)-3-hydroxy-3-(6-methoxyquinolin-4-yl)propyl]piperidine-3-carboxylic acid] | ≤ 0.0625 | ≤ 0.0625 | 0.125 (≈ 0.247 µM) | 2 (≈ 3.95 µM) | ≤ 0.0625 |  |  |  |  | 
14 | COc1ccc2nccc([C@@H](O)CC[C@@H]3CCN(C4CC(c5cc(C(F)(F)F)ccc5F)C4)C[C@@H]3C(=O)O)c2c1 (stereo partly drawn) [Example 62, (3R,4R)-1-{3-[2-fluoro-5-(trifluoromethyl)phenyl]cyclobutyl}-4-[(3S)-3-hydroxy-3-(6-methoxyquinolin-4-yl)propyl]piperidine-3-carboxylic acid] | 1 (≈ 1.78 µM) | 2 (≈ 3.57 µM) | 4 (≈ 7.14 µM) | 64 (≈ 114 µM) | 2 (≈ 3.57 µM) |  |  |  |  | 
15 | COc1ccc2nccc([C@@H](O)CC[C@@H]3CCN(C4CC(c5c(F)cccc5Cl)C4)C[C@@H]3C(=O)O)c2c1 (stereo partly drawn) [Example 63, (3R,4R)-1-[3-(2-chloro-6-fluorophenyl)cyclobutyl]-4-[(3S)-3-hydroxy-3-(6-methoxyquinolin-4-yl)propyl]piperidine-3-carboxylic acid] | ≤ 0.0625 | ≤ 0.0625 | 0.125 (≈ 0.237 µM) | 2 (≈ 3.79 µM) | ≤ 0.0625 |  |  |  |  | 
16 | COc1ccc2nccc([C@@H](O)CC[C@@H]3CCN(C4CC(c5cccc(Cl)c5F)C4)C[C@@H]3C(=O)O)c2c1 (stereo partly drawn) [Example 64, (3R,4R)-1-[3-(3-chloro-2-fluorophenyl)cyclobutyl]-4-[(3S)-3-hydroxy-3-(6-methoxyquinolin-4-yl)propyl]piperidine-3-carboxylic acid] | ≤ 0.0625 | ≤ 0.0625 | ≤ 0.0625 | 8 (≈ 15.2 µM) | ≤ 0.0625 |  |  |  |  | 
17 | COc1ccc2nccc([C@@H](O)CC[C@@H]3CCN(C4CC(c5ccc(Cl)cc5F)C4)C[C@@H]3C(=O)O)c2c1 (stereo partly drawn) [Example 65, (3R,4R)-1-[3-(4-chloro-2-fluorophenyl)cyclobutyl]-4-[(3S)-3-hydroxy-3-(6-methoxyquinolin-4-yl)propyl]piperidine-3-carboxylic acid] | 0.25 (≈ 0.474 µM) | 1 (≈ 1.9 µM) | 1 (≈ 1.9 µM) | 16 (≈ 30.4 µM) | 0.25 (≈ 0.474 µM) |  |  |  |  | 
18 | COc1ccc2nccc([C@@H](O)CC[C@@H]3CCN(C4CC(c5c(F)cccc5F)C4C)C[C@@H]3C(=O)O)c2c1 (stereo partly drawn) [Example 66, (3R,4R)-1-[(2,3)-3-(2,6-difluorophenyl)-2-methylcyclobutyl]-4-[(3S)-3-hydroxy-3-(6-methoxyquinolin-4-yl)propyl]piperidine-3-carboxylic acid] |  |  |  |  |  | 0.125 µg/mL (≈ 0.238 µM) | 0.25 µg/mL (≈ 0.477 µM) | 1 (≈ 1.91 µM) | 4 (≈ 7.62 µM) | 0.125 µg/mL (≈ 0.238 µM)
